Where two headings read alike, the source gives them in different places. Bounds are passed on as bounds.

One experiment deals with T1, PI3Kγ (p120γ) (Homo sapiens, UniProt P48736).
T1 construct: purchased Promega V1761
Put plainly: Inhibition of PI3K kinase activity (ADP Glo), PI3Kγ. The conditions noted are these: read-out: biochemical potency (PI3Kγ IC50). The protocol: Compounds were evaluated to determine the potency with which they inhibited the kinase activity of the Class I PI3K subunits p110α/p85α (Promega, Cat #V1721), p110β/p85α (Promega, Cat #V1751), p120γ (Promega, Cat #V1761) and p110δ/p85α (Promega, Cat #V1771). Activity was determined as a function of ADP (adenosine diphosphate) generated from ATP consumed during the phosphorylation of Phosphatidylinositol 4,5-bisphosphate (PIP2) (Promega, Cat #V1701) to yield Phosphatidylinositol (3,4,5)-trisphosphate (PIP3). ADP levels in the assay mixture at the end of the reaction were quantitated using ADP Glo (Promega, Cat #V9103) according to the manufacturer's recommended protocol.
Enzyme was prepared for each of the PI3K subunits in 100 mM HEPES, pH 7.4, 100 mM NaCl, 6 mM MgCl2 and 0.05% BSA. p110α/p85α was prepared at 2 nM (2×), p110β/p85α was prepared at 7 nM (2×), p120γ was prepared at 8 nM (2×) and p110δ/p85α was prepared at 2 nM (2×). Five microliters of 2× enzyme dilution of each PI3K subunit were added to a 384-well white Opti-plates pre-dispensed with compound and allowed to incubate for 1 h at rt. A substrate mix containing 0.1 mg/ml (2×) of PIP2 and 50 μM (2×) ATP (Promega, Cat #V915) was prepared in 25 mM HEPES and 0.5 mM EGTA. Reactions were initiated by addition of 5 μl of 2× substrate mix to each well of the plates containing various PI3K isoforms and allowed to proceed for 60 min at rt. Ten microliters of ADP Glo reagent 1 were added to the wells of each plate and allowed to incubate at rt for 45 min according to the manufacturer's directions. Following incubation, 20 μl of ADP Glo reagent 2 was added to each plate and allowed to incubate for an additional 45 min. Luminescent signal, generated by ADP Glo, was quantified by reading on a Perkin Elmer Envision multimode reader. Compound potencies (IC50's) were determined using a standard 4-parameter fit non-linear regression fit.
Background: ADP-Glo first removes unused ATP, then detects ADP through luciferase.

A further experiment has as its target T2, PI3Kγ (Homo sapiens, UniProt P48736).
T2 construct: host or cells: THP-1
The experiment is described as follows: PI3Kγ cellular assay in THP-1 cells (AKT pS473 AlphaLISA). The class given is cell-based. As for the experimental part:
Twenty microliters of serum starved THP-1 cells were added to the compound plate in serum free DMEM at a density of 9×10^6 cells per ml. Final assay conditions comprised 1.8×10^5 THP-1 cells per well with test compounds in 2% DMSO across a concentration range from 4 nM to 30 μM. […] Briefly, 10 μL of 4× lysis buffer was added to cells after stimulation. Following 60 min incubation at rt, 10 μL of cell lysate was transferred to a fresh 384-well Opti-plate to which 5 μL of AlphaLisa acceptor beads and 5 μL of AlphaLisa donor beads had been added. […] PI3Kγ activity was evaluated as a correlate of endogenous AKT phosphorylation levels. Percentage maximum activity in each test well was calculated based on DMSO (100% activity) and positive control treated cell wells (0% activity). The potencies (IC50's) of test compounds were determined using a standard 4-parameter fit non-linear regression fit.
On the technique in general: In Alpha technology, singlet oxygen from a donor bead excites a nearby acceptor bead.

The mark [1] stands for this setting: Table 6, rhMCP-1 stimulated AKT pS473, read-out: cellular potency (PI3Kγ IC50).
The mark [2] stands for this setting: Table 1, rhMCP-1 stimulated AKT pS473, read-out: cellular potency (PI3Kγ IC50).
[3] abbreviates: Table 2, rhMCP-1 stimulated AKT pS473, read-out: cellular potency (PI3Kγ IC50).
Setting [4] is: Table 3, rhMCP-1 stimulated AKT pS473, read-out: cellular potency (PI3Kγ IC50).

T2 sequence (P48736 whole entry): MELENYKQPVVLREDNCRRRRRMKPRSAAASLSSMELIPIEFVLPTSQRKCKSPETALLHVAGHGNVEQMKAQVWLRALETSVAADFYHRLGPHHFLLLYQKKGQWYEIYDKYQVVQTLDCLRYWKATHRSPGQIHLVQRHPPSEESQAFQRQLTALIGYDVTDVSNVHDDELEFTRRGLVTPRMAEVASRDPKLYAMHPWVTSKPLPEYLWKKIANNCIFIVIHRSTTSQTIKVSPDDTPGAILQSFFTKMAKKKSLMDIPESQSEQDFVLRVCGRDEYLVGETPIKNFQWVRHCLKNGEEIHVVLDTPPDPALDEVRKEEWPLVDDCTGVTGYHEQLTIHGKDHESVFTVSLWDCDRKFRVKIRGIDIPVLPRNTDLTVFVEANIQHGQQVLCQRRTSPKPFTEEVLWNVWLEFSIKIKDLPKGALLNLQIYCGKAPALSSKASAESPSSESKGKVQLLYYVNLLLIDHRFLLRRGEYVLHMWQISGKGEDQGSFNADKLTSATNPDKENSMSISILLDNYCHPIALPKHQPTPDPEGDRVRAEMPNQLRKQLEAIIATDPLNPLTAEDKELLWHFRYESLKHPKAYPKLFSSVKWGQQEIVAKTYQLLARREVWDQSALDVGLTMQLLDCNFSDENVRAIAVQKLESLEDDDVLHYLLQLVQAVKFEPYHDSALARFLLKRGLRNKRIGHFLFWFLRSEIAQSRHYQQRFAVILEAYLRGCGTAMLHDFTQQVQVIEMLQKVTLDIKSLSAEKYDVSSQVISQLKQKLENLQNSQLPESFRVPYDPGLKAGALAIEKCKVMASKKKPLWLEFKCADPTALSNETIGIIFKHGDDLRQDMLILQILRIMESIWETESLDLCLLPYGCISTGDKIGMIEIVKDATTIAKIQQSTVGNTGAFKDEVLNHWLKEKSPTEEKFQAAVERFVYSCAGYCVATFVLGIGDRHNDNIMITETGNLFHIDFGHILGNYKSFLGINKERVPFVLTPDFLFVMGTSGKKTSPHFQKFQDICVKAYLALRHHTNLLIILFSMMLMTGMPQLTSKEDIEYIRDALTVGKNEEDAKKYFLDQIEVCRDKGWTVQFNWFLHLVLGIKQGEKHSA
T1 sequence (P48736 whole entry): as above

As usually defined, the IC50 is the point on the concentration scale where inhibition reaches its midpoint. As for `C[C@@H](C1CC1)N1Cc2cc(-c3ccn4nc(N)c(C(=O)N[C@H]5CNC[C@@H]5O)c4n3)cc(OC(F)(F)F)c2C1=O` [Example 424], the IC50 is less than 100 nM at PI3Kγ (p120γ) (Table 6, p120γ) and more than 1000 nM at PI3Kγ (setting [1]).
For `CNC(=O)c1c(N)nn2ccc(-c3cc4c(c(C(F)(F)F)c3)C(=O)N([C@@H](C)C3CC3)C4)nc12` [Example 67, 2-[(S)-1-Cyclopropylethyl]-5-[2-amino-3-(methylamino)carbonyl-1,4,7a-triaza-5-indenyl]-7-(trifluoromethyl)-1-isoindolinone], the IC50 at PI3Kγ (p120γ) (Table 1, p120γ) was less than 100 nM; at PI3Kγ (setting [2]), less than 100 nM.
With `Cc1cc(-c2ccn3nc(N)c(C(=O)N[C@@H](CO)CC(C)C)c3n2)cc2c1C(=O)N([C@@H](C)C1CC1)C2` [Example 267], the IC50 on PI3Kγ (p120γ) (Table 2, p120γ) was less than 100 nM; at PI3Kγ (setting [3]), 100 to 1000 nM.
Turning to `C[C@H](CO)NC(=O)c1c(N)nn2ccc(-c3cc4c(c(N5CC(F)(F)C5)c3)C(=O)N([C@@H](C)C3CC3)C4)nc12` [Example 435], the IC50 was less than 100 nM at PI3Kγ (p120γ) (Table 6, p120γ) and 100 to 1000 nM on PI3Kγ (setting [1]).
`C[C@@H](C1CC1)N1Cc2cc(-c3ccn4nc(N)c(C(=O)NC5CC5)c4n3)cc(NS(=O)(=O)N(C)C)c2C1=O` [Example 410]: the IC50 on PI3Kγ (p120γ) (Table 6, p120γ) was less than 100 nM; on PI3Kγ (setting [1]), less than 100 nM.
`C[C@@H](C1CC1)N1Cc2cc(-c3ccn4nc(N)c(C(=O)NC5CC5)c4n3)cc(N3CC[C@H](O)C3)c2C1=O` [Example 152, 2-Amino-N-cyclopropyl-5-{2-[(1S)-1-cyclopropylethyl]-7-[(3S)-3-hydroxypyrrolidin-1-yl]-1-oxo-2,3-dihydro-1H-isoindol-5-yl}pyrazolo[1,5-a]pyrimidine-3-carboxamide]: the IC50 on PI3Kγ (p120γ) (Table 1, p120γ) was less than 100 nM; at PI3Kγ (setting [2]), less than 100 nM.
As to `C[C@@H](C1CC1)N1Cc2cc(-c3ccn4nc(N)c(C(=O)N[C@H]5C[C@](C)(O)C5)c4n3)cc(S(C)(=O)=O)c2C1=O` [Example 444], the IC50 at PI3Kγ (p120γ) (Table 6, p120γ) is less than 100 nM; at PI3Kγ (setting [1]), 100 to 1000 nM.
With `C[C@@H](C1CC1)N1Cc2cc(-c3ccn4nc(N)c(C(=O)NC5CC5)c4n3)cc(C3CC3)c2C1=O` [Example 165, 2-Amino-N-cyclopropyl-5-{7-cyclopropyl-2-[(1S)-1-cyclopropylethyl]-1-oxo-2,3-dihydro-1H-isoindol-5-yl}pyrazolo[1,5-a]pyrimidine-3-carboxamide], the IC50 was less than 100 nM on PI3Kγ (p120γ) (Table 1, p120γ) and less than 100 nM on PI3Kγ (setting [2]).
In the case of `COCC(NC(=O)c1c(N)nn2ccc(-c3cc4c(c(C(F)(F)F)c3)C(=O)N([C@@H](C)C3CC3)C4)nc12)C(C)C` (stereo partly drawn) [Example 364], the IC50 on PI3Kγ (p120γ) (Table 3, p120γ) was less than 100 nM; at PI3Kγ (setting [4]) it was 100 to 1000 nM.
As to `CCn1cc(NC(=O)c2c(N)nn3ccc(-c4cc(C)c5c(c4)CN([C@@H](C)C4CC4)C5=O)nc23)cn1` [Example 295], the IC50 at PI3Kγ (p120γ) (Table 2, p120γ) was less than 100 nM; on PI3Kγ (setting [3]) it was 100 to 1000 nM.
With `CS(=O)(=O)Nc1cc(-c2ccn3nc(N)c(C(=O)NC4CC4)c3n2)cc2c1C(=O)N([C@@H](C1CC1)C(F)(F)F)C2` [Example 128, 2-Amino-N-cyclopropyl-5-{2-[(1S)-1-cyclopropyl-2,2,2-trifluoroethyl]-7-methanesulfonamido-1-oxo-2,3-dihydro-1H-isoindol-5-yl}pyrazolo[1,5-a]pyrimidine-3-carboxamide], the IC50 was less than 100 nM on PI3Kγ (p120γ) (Table 1, p120γ) and less than 100 nM on PI3Kγ (setting [2]).
For the compound `C[C@@H](C1CC1)N1Cc2cc(-c3ccn4nc(N)c(C(=O)Nc5ccnc(C#N)c5)c4n3)cc(C(F)(F)F)c2C1=O` [Example 350], the IC50 on PI3Kγ (p120γ) (Table 3, p120γ) is less than 100 nM; at PI3Kγ (setting [4]) it was 100 to 1000 nM.
`C[C@H](N1Cc2cc(-c3ccn4nc(N)c(C(=O)NC5CC5)c4n3)cc(NS(C)(=O)=O)c2C1=O)C(F)(F)F` [Example 115, 2-Amino-N-cyclopropyl-5-{7-methanesulfonamido-1-oxo-2-[(2S)-1,1,1-trifluoropropan-2-yl]-2,3-dihydro-1H-isoindol-5-yl}pyrazolo[1,5-a]pyrimidine-3-carboxamide]: the IC50 on PI3Kγ (p120γ) (Table 1, p120γ) was less than 100 nM; at PI3Kγ (setting [2]) it was less than 100 nM.
As to `C[C@@H](C1CC1)N1Cc2cc(-c3ccn4nc(N)c(C(=O)NC5(C#N)CCC5)c4n3)cc(NS(C)(=O)=O)c2C1=O` [Example 81, 2-Amino-N-(1-cyanocyclobutyl)-5-{2-[(1S)-1-cyclopropylethyl]-7-methanesulfonamido-1-oxo-2,3-dihydro-1H-isoindol-5-yl}pyrazolo[1,5-a]pyrimidine-3-carboxamide], the IC50 on PI3Kγ (p120γ) (Table 1, p120γ) is less than 100 nM; on PI3Kγ (setting [2]), less than 100 nM.
With `C[C@H](CO)NC(=O)c1c(N)nn2ccc(-c3cc4c(c(NS(C)(=O)=O)c3)C(=O)N([C@@H](C)C(F)(F)F)C4)nc12` [Example 118, 2-Amino-N-[(2R)-1-hydroxypropan-2-yl]-5-{7-methanesulfonamido-1-oxo-2-[(2S)-1,1,1-trifluoropropan-2-yl]-2,3-dihydro-1H-isoindol-5-yl}pyrazolo[1,5-a]pyrimidine-3-carboxamide], the IC50 is less than 100 nM on PI3Kγ (p120γ) (Table 1, p120γ) and less than 100 nM on PI3Kγ (setting [2]).
In the case of `C[C@@H](C1CC1)N1Cc2cc(-c3ccn4nc(N)c(C(=O)NCCNS(C)(=O)=O)c4n3)cc(C(F)(F)F)c2C1=O` [Example 352], the IC50 at PI3Kγ (p120γ) (Table 3, p120γ) is less than 100 nM; on PI3Kγ (setting [4]), 100 to 1000 nM.
As to `C[C@@H](C1CC1)N1Cc2cc(-c3ccn4nc(N)c(C(=O)NCCO)c4n3)cc(C(F)(F)F)c2C1=O` [Example 51, 2-[(S)-1-Cyclopropylethyl]-5-{2-amino-3-[(2-hydroxyethylamino)carbonyl]-1,4,7a-triaza-5-indenyl}-7-(trifluoromethyl)-1-isoindolinone], the IC50 is less than 100 nM at PI3Kγ (p120γ) (Table 1, p120γ) and less than 100 nM at PI3Kγ (setting [2]).
`Cc1cc(-c2ccn3nc(N)c(C(=O)N[C@@H](C)C4CCNCC4)c3n2)cc2c1C(=O)N([C@@H](C)C1CC1)C2` [Example 290]: the IC50 was 100 to 1000 nM at PI3Kγ (p120γ) (Table 2, p120γ) and more than 1000 nM on PI3Kγ (setting [3]).
Turning to `Cc1cc(-c2ccn3nc(N)c(C(=O)NC4CNC4)c3n2)cc2c1C(=O)N([C@@H](C)C1CC1)C2` [Example 266], the IC50 was less than 100 nM on PI3Kγ (p120γ) (Table 2, p120γ) and more than 1000 nM on PI3Kγ (setting [3]).
For the compound `CC(=O)N1CC(NC(=O)c2c(N)nn3ccc(-c4cc5c(c(C(F)(F)F)c4)C(=O)N([C@@H](C)C4CC4)C5)nc23)C1` [Example 334], the IC50 is less than 100 nM at PI3Kγ (p120γ) (Table 3, p120γ) and 100 to 1000 nM at PI3Kγ (setting [4]).
As for `Cc1cc(-c2ccn3nc(N)c(C(=O)N[C@H](C)c4ccccc4F)c3n2)cc2c1C(=O)N(C(C)(C)CO)C2` [Example 317], the IC50 at PI3Kγ (p120γ) (Table 2, p120γ) is less than 100 nM; at PI3Kγ (setting [3]) it was more than 1000 nM.
Consider `C[C@@H](C1CC1)N1Cc2cc(-c3ccn4nc(N)c(C(=O)NC5CC5)c4n3)cc(N3CC(F)(F)C3)c2C1=O` [Example 436], for which the IC50 on PI3Kγ (p120γ) (Table 6, p120γ) is less than 100 nM; at PI3Kγ (setting [1]) it was 100 to 1000 nM.
On to `Cc1cc(-c2ccn3nc(N)c(C(=O)NC(C)CO)c3n2)cc2c1C(=O)N([C@@H]1CCC[C@H](O)C1)C2` (stereo partly drawn) [Example 326], for which the IC50 is less than 100 nM at PI3Kγ (p120γ) (Table 2, p120γ) and more than 1000 nM at PI3Kγ (setting [3]).
For `Cc1cc(-c2ccn3nc(N)c(C(=O)N[C@H](C)CN)c3n2)cc2c1C(=O)N([C@@H](C)C1CC1)C2` [Example 230], the IC50 on PI3Kγ (p120γ) (Table 2, p120γ) is less than 100 nM; on PI3Kγ (setting [3]), 100 to 1000 nM.
In the same order, the values of `Cc1cc(-c2ccn3nc(N)c(C(=O)NC(C)CO)c3n2)cc2c1C(=O)N([C@H]1CCC[C@H](O)C1)C2` (stereo partly drawn) [Example 329] are less than 100 nM and more than 1000 nM.
Consider `Cc1cc(-c2ccn3nc(N)c(C(=O)N[C@H]4CC[C@@H]4O)c3n2)cc2c1C(=O)N([C@@H](C)C1CC1)C2` [Example 211], for which the IC50 is less than 100 nM at PI3Kγ (p120γ) (Table 2, p120γ) and 100 to 1000 nM at PI3Kγ (setting [3]).
In the same order, the values of `Cc1cc(-c2ccn3nc(N)c(C(=O)NCC(=O)Nc4ccccc4)c3n2)cc2c1C(=O)N([C@@H](C)C1CC1)C2` [Example 279] are less than 100 nM and more than 1000 nM.
